Columns and labels:
[1] = system: PAF-induced platelet aggregation (human platelets); experiment: In vitro platelet aggregation assay: inhibition of PAF-induced aggregation in platelet-rich plasma; assay type: cell-based; details: PAF-induced aggregation of human PRP, 2 min preincubation, 37° C., PAF 1-5×10^-8 M, read-out: PAF Antagonism (in vitro) IC50
Experimental: A. In Vitro Studies--Platelet Aggregation Assay
Platelet-activating factor (PAF) causes aggregation of platelets by a receptor-mediated mechanism. Therefore, PAF-induced platelet aggregation provides a simple and convenient assay to screen compounds for PAF antagonism.
Human blood (50 ml) was collected from healthy male donors in an anticoagulant solution (5 ml) containing sodium citrate (3.8%) and dextrose (2%). Blood was centriguged at 110×g for 15 min. and the supernatant platelet-rich plasma (PRP) carefully transferred into a polypropylene tube. Platelet-poor-plasma (PPP) was prepared by centrifuging PRP at 12,000×g for 2 min. (Beckman Microfuge B). PRP was used within 3 hr. of drawing the blood.
PAF was dissolved in chloroform:methanol (1:1, v/v) at a concentration of 2 mg/ml and stored at -70° C. An aliquot of this solution was transferred to a polypropylene tube and dried under a flow of nitrogen gas. To the dried sample was added Hepes-saline-BSA (BSA=bovine serum albumen) buffer (25 mM Hepes, pH 7.4, […], 0.7 mM MgCl2 and 0.1% BSA) to obtain a 1 mM solution and sonicated for 5 min. in a bath sonicator. This stock solution was further diluted to appropriate concentrations in Hepes-saline-BSA buffer. Collagen (Sigma) and adenosine diphosphate (ADP) (Sigma) were purchased as solutions. Test compounds were initially dissolved in dimethyl sulfoxide (DMSO) at a concentration of 50 mM and then further diluted in Hepes-saline-BSA buffer to achieve appropriate concentrations.
When an aggregating agent such as PAF is added to PRP, platelets aggregate. An aggregometer quantifies this aggregation by measuring and comparing light (infra-red) transmission through PPP and PRP. Aggregation assays were performed using a dual-channel aggregometer (Model 440, Chrono-Log Corp., Havertown, Pa.). PRP (0.45 ml) in aggregometer cuvettes was continually stirred (37° C.). Solutions (50 μL) of test compounds or vehicel were added to the PRP and, after incubation for 2 min., 10-15 μl aliquots of PAF solution were added to achieve a final concentration of 1-5×10^-8 M. In different experiments the aggreatory response was kept within a set limit by varying the concentration of PAF. Incubations were continued until the increase in light transmission reached a maximum (usually 2 min.). This increase in light transmission reflecting platlet aggregation is transmitted to a computer by the Chrono-Log model 810 AGGRO/LINK interface. The AGGRO/LINK calculates the slope of transmission change, thus providing the rate of aggregation. Values for inhibition were calculated by comparing rates of aggregation obtained in the absence and the presence of the compound. For each experiment, a standard PAF antagonist such as 8-chloro-6,11-dihydro-11-(1-acetyl-4-piperidylidene)-5H-benzo[5,6]cyclohepta[1,2-b]pyridine was used as a positive control. […]

PAF-induced bronchospasm = experiment: Spasmogen-induced bronchospasm in guinea pigs, PAF challenge; assay type: in vivo, guinea pig (male Hartley); details: dose 3 mpk, PAF 0.4 μg/kg i.v., inhibition of increase in inflation pressure vs control
[2] = system: histamine-induced bronchospasm; experiment: Spasmogen-induced bronchospasm in guinea pigs, histamine challenge; assay type: in vivo, guinea pig (male Hartley); details: dose 3 mpk, histamine 10 ug/kg i.v., inhibition of increase in inflation pressure vs control

SMILES	IC50 [1]	Agonist Bronchospasm (in Vivo)-oral, PAF, % Inhibition (PAF-induced bronchospasm)	Agonist Bronchospasm (in Vivo)-oral, Histamine, % Inhibition [2]
[O-][n+]1ccc(CN2CCC(C3(O)c4ccccc4Sc4ccccc43)CC2)cc1 [IA-14]	1750 nM		
[O-][n+]1ccc(CN2CCC(C3(O)c4ccccc4Oc4ncccc43)CC2)cc1 (stereo not shown) [IA-12]	3000 nM	42%	0%
[O-][n+]1ccc(CN2CCC(C3(O)c4ccccc4Oc4cnccc43)CC2)cc1 (stereo not shown) [IA-9]	> 10000 nM		
O=C(c1cc[n+]([O-])cc1)N1CCC(C2(O)c3ccccc3Sc3ccccc32)CC1 [IA-6]	1500 nM	20%	
O=C(c1cc[n+]([O-])cc1)N1CCC(C2(O)c3ccccc3Oc3ccccc32)CC1 [IA-2]	5000 nM		
O=C(c1cc[n+]([O-])cc1)N1CCC(C2(O)c3ccccc3Oc3ncccc32)CC1 (stereo not shown) [IA-4]	800 nM		
[O-][n+]1ccc(CN2CCC(C3(O)c4ccccc4Oc4ccccc43)CC2)cc1 [IA-10]	10000 nM		
CN1c2ccccc2C(O)(C2CCN(C(=O)c3cc[n+]([O-])cc3)CC2)c2ccccc21 [IA-5]	5000 nM	7%	
O=C(c1cc[n+]([O-])cc1)N1CCC(C2(O)c3ccccc3Oc3cnccc32)CC1 (stereo not shown) [IA-1]	5000 nM		
[O-][n+]1ccc(CN2CCC(C3(O)c4ccccc4Oc4cccnc43)CC2)cc1 (stereo not shown) [IA-11]	5000 nM		
O=C(c1cc[n+]([O-])cc1)N1CCC(C2(O)c3ccccc3CCc3cccnc32)CC1 (stereo not shown) [IA-8]	2000 nM	25%	
O=C(c1cc[n+]([O-])cc1)N1CCC(C2(O)c3ccccc3Oc3cccnc32)CC1 (stereo not shown) [IA-3]	2000 nM	97%	0%

From patent US5561117A, “Bridged bis-aryl carbinol derivatives, compositions and methods of use” (Schering Corporation, priority 1994, dated 1996)
